Columns and labels:
Conditions in all cases: pH 7.4; 30 °C
[1] = target: T1, Fatty-acid amide hydrolase 1 (Homo sapiens, UniProt O00519); experiment: FAAH Inhibition Assay (60 min Preincubation)
T1 sequence (O00519 whole entry): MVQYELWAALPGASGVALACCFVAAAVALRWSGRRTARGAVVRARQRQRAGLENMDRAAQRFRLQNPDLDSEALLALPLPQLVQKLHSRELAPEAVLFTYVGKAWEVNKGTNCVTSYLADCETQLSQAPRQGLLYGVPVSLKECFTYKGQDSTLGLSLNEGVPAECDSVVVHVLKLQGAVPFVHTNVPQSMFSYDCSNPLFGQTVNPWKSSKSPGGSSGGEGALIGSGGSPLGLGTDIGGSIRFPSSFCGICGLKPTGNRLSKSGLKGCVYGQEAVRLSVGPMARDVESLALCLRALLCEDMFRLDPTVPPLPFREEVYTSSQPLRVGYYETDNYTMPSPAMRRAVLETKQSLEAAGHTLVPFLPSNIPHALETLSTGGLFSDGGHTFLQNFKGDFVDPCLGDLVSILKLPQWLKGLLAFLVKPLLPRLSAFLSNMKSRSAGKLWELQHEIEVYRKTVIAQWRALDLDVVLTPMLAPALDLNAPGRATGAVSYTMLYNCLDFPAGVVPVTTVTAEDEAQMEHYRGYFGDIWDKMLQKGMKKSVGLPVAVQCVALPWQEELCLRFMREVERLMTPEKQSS
Protocol: (§1) FAAH activity was measured by following the production of ammonia generated from the hydrolysis of oleamide by FAAH. GDH catalyzes the condensation of ammonia and alpha-ketoglutarate to glutamate with a concomitant conversion of NADH to nicotinamide adenine dinucleotide, oxidized form (NAD+), which is spectrophotometrically measured at 340 nm. Test compounds were preincubated with FAAH at room temperature for 60 min. The reaction was initiated with the addition of substrate oleamide. The absorbance at 340 nm was collected over a period of 30 min with reading taken in 10-s intervals using a spectrophotometer.

[2] = target: T1, Fatty-acid amide hydrolase 1; experiment: FAAH Inhibition Assay (30 min Preincubation)
Protocol: as §1, with “30” for “60”

[3] = target: T1, Fatty-acid amide hydrolase 1; experiment: FAAH Inhibition Assay (15 min Preincubation)
Protocol: as §1, with “15” for “60”

[4] = target: T1, Fatty-acid amide hydrolase 1; experiment: FAAH Inhibition Assay (5 min Preincubation)
Protocol: as §1, with “5” for “60”

IC50 [1]: 33 nM
IC50 [2]: 473 nM
IC50 [3]: 687 nM
IC50 [4]: 991 nM
Compound: O=C(Nc1ccccc1)N1CCN(Cc2ccc3ccccc3n2)CC1 [N-phenyl-4-(quinolin-2-ylmethyl)piperazine-1-carboxamide]

— BindingDB's records for doi:10.1021/bi701378g (Pfizer, 2007)
